Results from PubChem BioAssay AID256 (DTP/NCI, 2004).
Where “and” joins values, the source holds several entries; their conditions need not be identical. Identical values can stand only once. Inconclusive results and toxic doses are left out. Rule for the calls: active = survival T/C of 150% or more; inactive = T/C below 125% in these data.

Test system: CD2F1 mice, L1210 leukemia ip, survival T/C
Experiment: NCI In Vivo Anticancer Drug Screen. Data for tumor model L1210 Leukemia (intraperitoneal) in CD2F1 (CDF1) mice
Details: endpoint: mean survival time, higher = longer survival
Summary of the method: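 Tumor-bearing mice (transplanted tumor) were split into treated and vehicle control groups, and the measured endpoint of each treated group was divided by that of its vehicle controls.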

[1] = dose: 12.5 mg/kg/injection, schedule: Q01DX005 (ip), vehicle: distilled water + Tween-80
[2] = dose: 25.0 mg/kg/injection, schedule: Q01DX005 (ip), vehicle: distilled water + Tween-80
[3] = dose: 50.0 mg/kg/injection, schedule: Q01DX005 (ip), vehicle: distilled water + Tween-80
[4] = dose: 100.0 mg/kg/injection, schedule: Q01DX005 (ip), vehicle: distilled water + Tween-80
[5] = dose: 200.0 mg/kg/injection, schedule: Q01DX005 (ip), vehicle: distilled water + Tween-80
[6] = dose: 100.0 mg/kg/injection, schedule: Q01DX001 (ip), vehicle: saline with Tween-80
[7] = dose: 200.0 mg/kg/injection, schedule: Q01DX001 (ip), vehicle: saline with Tween-80
[8] = dose: 400.0 mg/kg/injection, schedule: Q01DX001 (ip), vehicle: saline with Tween-80
[9] = dose: 100.0 mg/kg/injection, schedule: Q04DX003 (ip), vehicle: saline sonified
[10] = dose: 200.0 mg/kg/injection, schedule: Q04DX003 (ip), vehicle: saline sonified
[11] = dose: 400.0 mg/kg/injection, schedule: Q04DX003 (ip), vehicle: saline sonified
[12] = dose: 100.0 mg/kg/injection, schedule: Q04DX003 (ip), vehicle: saline with Tween-80
[13] = dose: 200.0 mg/kg/injection, schedule: Q04DX003 (ip), vehicle: saline with Tween-80
[14] = dose: 400.0 mg/kg/injection, schedule: Q04DX003 (ip), vehicle: saline with Tween-80
[15] = dose: 100.0 mg/kg/injection, schedule: Q04DX002 (ip), vehicle: saline with Tween-80
[16] = dose: 50.0 mg/kg/injection, schedule: Q01DX009 (ip), vehicle: saline with Tween-80
[17] = dose: 100.0 mg/kg/injection, schedule: Q01DX009 (ip), vehicle: saline with Tween-80
[18] = dose: 200.0 mg/kg/injection, schedule: Q01DX009 (ip), vehicle: saline with Tween-80

Measured: T/C

CC(=O)/C=C\C1OC(n2ccc(=O)[nH]c2=O)C2OC(C)(C)OC12 (stereo unspecified)
inactive: [1] 105 % of control | [2] 103 % of control | [3] 97 % of control | [4] 102 % of control | [5] 103 % of control

CCCCCCCC/C=C\CCCCCCCC(=O)NCCN1CCCCC1
inactive: dose: 75.0 mg/kg/injection, schedule: Q01DX001 (ip), vehicle: saline 100 % of control | dose: 150.0 mg/kg/injection, schedule: Q01DX001 (ip), vehicle: saline 96 % of control | dose: 300.0 mg/kg/injection, schedule: Q01DX001 (ip), vehicle: saline 96 % of control

CCCCCCCCCCCCCCCCOc1ccc(NS(=O)(=O)c2ccc(NC(C)=O)cc2)cc1
inactive: [6] 96 % of control | dose: 100.0 mg/kg/injection, schedule: Q01DX009 (ip), vehicle: Klucel (hydroxypropylcellulose) (HPC) 109 % of control | [7] 91 % of control | dose: 200.0 mg/kg/injection, schedule: Q01DX009 (ip), vehicle: Klucel (hydroxypropylcellulose) (HPC) 103 % of control | [8] 93 % of control | dose: 400.0 mg/kg/injection, schedule: Q01DX009 (ip), vehicle: Klucel (hydroxypropylcellulose) (HPC) 98 % of control

N#CC(/C=C/c1ccccc1)Nc1ccccc1C(N)=O (stereo unspecified)
inactive: [9] 97 % of control | [10] 97 % of control | [11] 97 % of control

CCc1c(Br)c(CC)c(CC)c(CC)c1CC
inactive: [12] 98 % of control | [13] 98 % of control | [14] 97 % of control

CCC(=O)c1cc(OC)cc(OC)c1
inactive: dose: 100.0 mg/kg/injection, schedule: Q04DX003 (ip), vehicle: saline 100 % of control | dose: 200.0 mg/kg/injection, schedule: Q04DX003 (ip), vehicle: saline 101 % of control | dose: 400.0 mg/kg/injection, schedule: Q04DX003 (ip), vehicle: saline 103 % of control

NC(=O)COc1ccc(F)cc1
inactive: [15] 97 % of control | dose: 200.0 mg/kg/injection, schedule: Q04DX002 (ip), vehicle: saline with Tween-80 90 % of control | dose: 400.0 mg/kg/injection, schedule: Q04DX002 (ip), vehicle: saline with Tween-80 101 % of control

Nc1nc(=Nc2ccccc2)n(C2OCC(O)C(O)C2O)c2ccccc12 (stereo unspecified)
inactive: [1] 94 % of control | [2] 94 % of control | [3] 93 % of control | [4] 90 % of control | [5] 86 % of control

CC1=C(O)C(=O)OC1c1ccc(C)cc1 (stereo unspecified)
inactive: dose: 12.5 mg/kg/injection, schedule: Q01DX009 (ip), vehicle: other 101 % of control | dose: 25.0 mg/kg/injection, schedule: Q01DX009 (ip), vehicle: other 98 % of control | dose: 50.0 mg/kg/injection, schedule: Q01DX009 (ip), vehicle: other 95 % of control | dose: 100.0 mg/kg/injection, schedule: Q01DX009 (ip), vehicle: other 98 % of control | dose: 200.0 mg/kg/injection, schedule: Q01DX009 (ip), vehicle: other 104 % of control

CCOC(=O)NN=C1CCCC1
inactive: dose: 12.5 mg/kg/injection, schedule: Q01DX009 (ip), vehicle: saline with Tween-80 88 % of control | dose: 25.0 mg/kg/injection, schedule: Q01DX009 (ip), vehicle: saline with Tween-80 88 % of control | [16] 92 % of control

CN1CCc2[nH]c3ccccc3c2C1
inactive: dose: 75.0 mg/kg/injection, schedule: Q01DX001 (ip), vehicle: other 93 % of control | dose: 100.0 mg/kg/injection, schedule: Q04DX002 (ip), vehicle: Klucel (hydroxypropylcellulose) (HPC) 95 % of control | dose: 150.0 mg/kg/injection, schedule: Q01DX001 (ip), vehicle: other 93 % of control | dose: 200.0 mg/kg/injection, schedule: Q04DX002 (ip), vehicle: Klucel (hydroxypropylcellulose) (HPC) 103 % of control

CCCCCCOS(=O)OCC(Cl)COC (stereo unspecified)
inactive: [17] 97 % of control | [18] 94 % of control

COc1ccc(C2=CCCCc3cc(O)c(OC)cc32)cc1
inactive: [16] 100 % of control | [17] 100 % of control | [18] 100 % of control

COc1cc(-c2cc(OC)c(O)c(OC)c2)cc(OC)c1O
inactive: [6] 96 % of control | [7] 101 % of control | [8] 90 % of control

CC12C=C(C(=O)c3ccccc3)C(CC1)C2(C)C (stereo unspecified)
inactive: [17] 95 % of control | [12] 96 % of control | [18] 97 % of control | [13] 93 % of control | dose: 400.0 mg/kg/injection, schedule: Q01DX009 (ip), vehicle: saline with Tween-80 97 % of control | [14] 91 % of control

N#CC1C2CCC(O2)C1C(=O)Oc1ccccc1 (stereo unspecified)
inactive: dose: 25.0 mg/kg/injection, schedule: Q04DX002 (ip), vehicle: saline with Tween-80 103 % of control | dose: 50.0 mg/kg/injection, schedule: Q04DX002 (ip), vehicle: saline with Tween-80 95 % of control | [15] 97 % of control and 110 % of control

O=[N+]([O-])c1ccc(N/N=C(\CI)c2ccccc2)c([N+](=O)[O-])c1
inactive: [9] 97 % of control | [10] 109 % of control | [11] 108 % of control

CCOC(=O)C(Cl)C(=O)OCC
inactive: [6] 108 % of control and 109 % of control | [7] 104 % of control and 105 % of control | [8] 120 % of control and 111 % of control
